Assay results reported in PubChem BioAssay (NCI).
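Each compound was tested at five concentrations against cells in 96-well plates for 48 hours. TGI denotes the concentration required for complete inhibition of growth.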

Columns and labels:
Experiment in all cases: DTP human tumour cell line panel, 48 h
786-0 renal = system: 786-0 renal
A498 renal = system: A498 renal
A549 NSCLC = system: A549 NSCLC
ACHN renal = system: ACHN renal
BT-549 breast = system: BT-549 breast
CAKI-1 renal = system: CAKI-1 renal
CCRF-CEM leukemia = system: CCRF-CEM leukemia
DU-145 prostate = system: DU-145 prostate
EKVX NSCLC = system: EKVX NSCLC
HCC-2998 colon = system: HCC-2998 colon
HCT-116 colon = system: HCT-116 colon
HCT-15 colon = system: HCT-15 colon
HL-60(TB) leukemia = system: HL-60(TB) leukemia
HOP-62 NSCLC = system: HOP-62 NSCLC
HOP-92 NSCLC = system: HOP-92 NSCLC
HS 578T breast = system: HS 578T breast
HT29 colon = system: HT29 colon
IGROV1 ovarian = system: IGROV1 ovarian
K-562 leukemia = system: K-562 leukemia
KM12 colon = system: KM12 colon
LOX IMVI melanoma = system: LOX IMVI melanoma
MALME-3M melanoma = system: MALME-3M melanoma
MCF7 breast = system: MCF7 breast
MDA-MB-231 breast = system: MDA-MB-231 breast
MDA-MB-435 = system: MDA-MB-435
MDA-N = system: MDA-N
MOLT-4 leukemia = system: MOLT-4 leukemia
NCI-H226 lung = system: NCI-H226 lung
NCI-H23 lung = system: NCI-H23 lung
NCI-H460 lung = system: NCI-H460 lung
NCI-H522 lung = system: NCI-H522 lung
NCI/ADR-RES ovarian = system: NCI/ADR-RES ovarian
OVCAR-3 ovarian = system: OVCAR-3 ovarian
OVCAR-4 ovarian = system: OVCAR-4 ovarian
OVCAR-5 ovarian = system: OVCAR-5 ovarian
OVCAR-8 ovarian = system: OVCAR-8 ovarian
RPMI-8226 leukemia = system: RPMI-8226 leukemia
RXF 393 renal = system: RXF 393 renal
SF-268 CNS = system: SF-268 CNS
SF-295 CNS = system: SF-295 CNS
SF-539 CNS = system: SF-539 CNS
SK-MEL-2 melanoma = system: SK-MEL-2 melanoma
SK-MEL-28 melanoma = system: SK-MEL-28 melanoma
SK-MEL-5 melanoma = system: SK-MEL-5 melanoma
SK-OV-3 ovarian = system: SK-OV-3 ovarian
SN12C renal = system: SN12C renal
SNB-19 CNS = system: SNB-19 CNS
SNB-75 CNS = system: SNB-75 CNS
SR leukemia = system: SR leukemia
SW-620 colon = system: SW-620 colon
T-47D breast = system: T-47D breast
TK-10 renal = system: TK-10 renal
U251 CNS = system: U251 CNS
UACC-257 melanoma = system: UACC-257 melanoma
UACC-62 melanoma = system: UACC-62 melanoma
UO-31 renal = system: UO-31 renal
COLO 205 colon = system: COLO 205 colon
M14 melanoma = system: M14 melanoma

COC(=O)c1ccccc1C1CN=NC12Cc1cccc(C)c1C2=O (stereo unspecified) gave a TGI (786-0 renal) of over 100 µM, a TGI (A498 renal) of over 100 µM and a TGI (A549 NSCLC) of over 100 µM. It also gave a TGI (ACHN renal) of over 100 µM, a TGI (BT-549 breast) of over 100 µM and a TGI (CAKI-1 renal) of over 100 µM. It also gave a TGI (CCRF-CEM leukemia) of over 100 µM, a TGI (DU-145 prostate) of over 100 µM and a TGI (EKVX NSCLC) of over 100 µM. It also gave a TGI (HCC-2998 colon) of over 100 µM, a TGI (HCT-116 colon) of over 100 µM and a TGI (HCT-15 colon) of over 100 µM. For the same molecule, the TGI (HL-60(TB) leukemia) was 72.1 µM, the TGI (HOP-62 NSCLC) was over 100 µM and the TGI (HOP-92 NSCLC) was over 100 µM. For the same molecule, the TGI (HS 578T breast) was over 100 µM, the TGI (HT29 colon) was over 100 µM and the TGI (IGROV1 ovarian) was over 100 µM. It also gave a TGI (K-562 leukemia) of over 100 µM, a TGI (KM12 colon) of over 100 µM and a TGI (LOX IMVI melanoma) of over 100 µM. The TGI (MALME-3M melanoma) was over 100 µM, the TGI (MCF7 breast) was 91.9 µM and the TGI (MDA-MB-231 breast) was over 100 µM. For the same molecule, the TGI (MDA-MB-435) was over 100 µM, the TGI (MDA-N) was over 100 µM and the TGI (MOLT-4 leukemia) was over 100 µM. It also gave a TGI (NCI-H226 lung) of over 100 µM, a TGI (NCI-H23 lung) of over 100 µM and a TGI (NCI-H460 lung) of over 100 µM. It also gave a TGI (NCI-H522 lung) of over 100 µM, a TGI (NCI/ADR-RES ovarian) of 45.7 µM and a TGI (OVCAR-3 ovarian) of 82.1 µM. For the same molecule, the TGI (OVCAR-4 ovarian) was over 100 µM, the TGI (OVCAR-5 ovarian) was over 100 µM and the TGI (OVCAR-8 ovarian) was over 100 µM. For the same molecule, the TGI (RPMI-8226 leukemia) was over 100 µM, the TGI (RXF 393 renal) was over 100 µM and the TGI (SF-268 CNS) was over 100 µM. The TGI (SF-295 CNS) was over 100 µM, the TGI (SF-539 CNS) was over 100 µM and the TGI (SK-MEL-2 melanoma) was over 100 µM. The TGI (SK-MEL-28 melanoma) was over 100 µM, the TGI (SK-MEL-5 melanoma) was over 100 µM and the TGI (SK-OV-3 ovarian) was over 100 µM. It also gave a TGI (SN12C renal) of over 100 µM, a TGI (SNB-19 CNS) of over 100 µM and a TGI (SNB-75 CNS) of over 100 µM. For the same molecule, the TGI (SR leukemia) was over 100 µM, the TGI (SW-620 colon) was over 100 µM and the TGI (T-47D breast) was 56.4 µM. For the same molecule, the TGI (TK-10 renal) was over 100 µM, the TGI (U251 CNS) was over 100 µM and the TGI (UACC-257 melanoma) was over 100 µM. It also gave a TGI (UACC-62 melanoma) of over 100 µM and a TGI (UO-31 renal) of 83.9 µM.

With CC(C)(C)c1ccc(C(C)(C)C)c(N2C(=O)C3ON=C(c4ccc([N+](=O)[O-])cc4)C3C2=O)c1 (stereo unspecified) the TGI (786-0 renal) was 9.71 µM, the TGI (A498 renal) was 23.2 µM and the TGI (A549 NSCLC) was over 25 µM. For the same molecule, the TGI (ACHN renal) was over 25 µM, the TGI (BT-549 breast) was over 25 µM and the TGI (CAKI-1 renal) was over 25 µM. It also gave a TGI (CCRF-CEM leukemia) of over 25 µM, a TGI (COLO 205 colon) of over 25 µM and a TGI (DU-145 prostate) of over 25 µM. It also gave a TGI (EKVX NSCLC) of over 25 µM, a TGI (HCC-2998 colon) of over 25 µM and a TGI (HCT-116 colon) of over 25 µM. It also gave a TGI (HCT-15 colon) of over 25 µM, a TGI (HL-60(TB) leukemia) of over 25 µM and a TGI (HOP-62 NSCLC) of over 25 µM. It also gave a TGI (HOP-92 NSCLC) of over 25 µM, a TGI (HS 578T breast) of over 25 µM and a TGI (HT29 colon) of over 25 µM. It also gave a TGI (IGROV1 ovarian) of 19.4 µM, a TGI (K-562 leukemia) of over 25 µM and a TGI (KM12 colon) of over 25 µM. It also gave a TGI (LOX IMVI melanoma) of over 25 µM, a TGI (M14 melanoma) of over 25 µM and a TGI (MALME-3M melanoma) of over 25 µM. For the same molecule, the TGI (MCF7 breast) was over 25 µM, the TGI (MDA-MB-435) was over 25 µM and the TGI (MDA-N) was over 25 µM. It also gave a TGI (MOLT-4 leukemia) of over 25 µM, a TGI (NCI-H226 lung) of over 25 µM and a TGI (NCI-H23 lung) of over 25 µM. For the same molecule, the TGI (NCI-H460 lung) was over 25 µM, the TGI (NCI-H522 lung) was over 25 µM and the TGI (NCI/ADR-RES ovarian) was over 25 µM. For the same molecule, the TGI (OVCAR-3 ovarian) was over 25 µM, the TGI (OVCAR-4 ovarian) was over 25 µM and the TGI (OVCAR-5 ovarian) was over 25 µM. The TGI (OVCAR-8 ovarian) was over 25 µM, the TGI (RPMI-8226 leukemia) was over 25 µM and the TGI (RXF 393 renal) was over 25 µM. It also gave a TGI (SF-268 CNS) of over 25 µM, a TGI (SF-295 CNS) of over 25 µM and a TGI (SF-539 CNS) of over 25 µM. The TGI (SK-MEL-28 melanoma) was over 25 µM, the TGI (SK-MEL-5 melanoma) was over 25 µM and the TGI (SK-OV-3 ovarian) was over 25 µM. The TGI (SN12C renal) was over 25 µM, the TGI (SNB-19 CNS) was over 25 µM and the TGI (SNB-75 CNS) was 14.3 µM. For the same molecule, the TGI (SR leukemia) was over 25 µM, the TGI (SW-620 colon) was over 25 µM and the TGI (T-47D breast) was over 25 µM. The TGI (TK-10 renal) was over 25 µM, the TGI (UACC-257 melanoma) was over 25 µM and the TGI (UACC-62 melanoma) was over 25 µM. For the same molecule, the TGI (UO-31 renal) was over 25 µM.
